Measured values: patent US6486185B1, “3-heteroarylidene-2-indolinone protein kinase inhibitors” (Sugen, Inc., priority 1997, dated 2002)

Experiments:
FLK-1R = biological target: T1, FLK-1R (Mus musculus, UniProt P35918); assay: FLK-1 receptor ELISA in cells engineered to express Flk-1; assay type: cell-based; conditions: 50% inhibition of PTK activity over control
T1 construct: expressed in transfected cells; host or cells: NIH3T3 C7#3
Experimental: (§1) The cellular/catalytic assays described herein are performed in an ELISA format. The general procedure is a follows: a compound is introduced to cells expressing the test kinase, either naturally or recombinantly, for some period of time after which, if the test kinase is a receptor, a ligand known to activate the receptor's activity is added. The cells are lysed and the lysate is transferred to the wells of an ELISA plate previously coated with a specific antibody recognizing the substrate of the enzymatic phosphorylation reaction. Non-substrate components of the cell lysate are washed away and the amount of phosphorylation on the substrate is detected with an antibody specifically recognizing phosphotyrosine compared with control cells that were not contacted with a test compound.
An ELISA assay is conducted to measure the kinase activity of the FLK-1 receptor and more specifically, the inhibition or activation of TK activity on the FLK-1 receptor. Specifically, the following assay can be conducted to measure kinase activity of the FLK-1 receptor in cells genetically engineered to express Flk-1.
The following reagents and supplies are used:
a. Corning 96-well ELISA plates (Corning Catalog No. 25805-96);
b. Cappel goat anti-rabbit IgG (catalog no. 55641);
c. PBS (Gibco Catalog No. 450-1300EB);
d. TBSW Buffer (50 mM Tris (pH 7.2), 150 mM NaCl and 0.1% Tween-20);
e. Ethanolamine stock (10% ethanolamine (pH 7.0), stored at 4° C.);
f. HNTG buffer (20 mM HEPES buffer (pH 7.5), 150 mM NaCl, 0.2% Triton X-100, and 10% glycerol);
g. EDTA (0.5 M (pH 7.0) as a 100×stock);
h. Sodium orthovanadate (0.5 M as a 100×stock);
i. Sodium pyrophosphate (0.2 M as a 100×stock);
j. NUNC 96 well V bottom polypropylene plates (Applied Scientific Catalog No. AS-72092);
k. NIH3T3 C7#3 Cells (FLK-1 expressing cells)
l. DMEM with 1×high glucose L-Glutamine (catalog No. 11965-050);
n. L-glutamine, Gibco (catalog no. 25030-016);
o. VEGF, PeproTech, Inc. (catalog no. 100-20) (kept as 1 μg/100 μL stock in Milli-Q dH2O and stored at −20° C.;
p. Affinity purified anti-FLK-1 antiserum;
q. UB40 monoclonal antibody specific for phosphotyrosine (see, Fendley, et al., 1990, Cancer Research 50:1550-1558);
r. EIA grade Goat anti-mouse IgG-POD (BioRad catalog no. 172-1011);
s. 2,2-azino-bis(3-ethylbenz-thiazoline-6-sulfonic acid (ABTS) solution (100 mM citric acid (anhydrous), 250 mM Na2HPO4 (pH 4.0), 0.5 mg/mL ABTS (Sigma catalog no. A-1888)), solution should be stored in dark at 4° C. until ready for use;
t. H2O2 (30% solution) (Fisher catalog no. H325);
u. ABTS/H2O2 (15 mL ABTS solution, 2 μL H2O2) prepared 5 minutes before use and left at room temperature;
v. 0.2 M HCl stock in H2O;
w. dimethylsulfoxide (100%)(Sigma Catalog No. D-8418); and
y. Trypsin-EDTA (Gibco BRL Catalog No. 25200-049).
The following protocol can be used for conducting the assay:
1. Coat Corning 96-well ELISA plates with 1.0 μg per well Cappel Anti-rabbit IgG antibody in 0.1 M Na2CO3 pH 9.6. Bring final volume to 150 μL per well. Coat plates overnight at 4° C. Plates can be kept up to two weeks when stored at 4° C.
2. Grow cells in Growth media(DMEM, supplemented with 2.0 mM L-Glutamine, 10% FBS) in suitable culture dishes until confluent at 37° C., 5% CO2.
3. Harvest cells by trypsinization and seed in Corning 25850 polystyrene 96-well round bottom cell plates, 25.000 cells/well in 200 μL of growth media.
4. Grow cells at least one day at 37° C., 5% CO2.
5. Wash cells with D-PBS 1×.
6. Add 200 μL/well of starvation media (DMEM, 2.0 mM 1-Glutamine, 0.1% FBS). Incubate overnight at 37° C., 5% CO2.
7. Dilute Compounds 1:20 in polypropylene 96 well plates using starvation media. Dilute dimethylsulfoxide 1:20 for use in control wells.
8. Remove starvation media from 96 well cell culture plates and add 162 μL of fresh starvation media to each well.
9. […]

PDGFR = PDGFR (Homo sapiens, UniProt P09619); assay: PDGF-R ELISA (cellular kinase assay); assay type: cell-based; conditions: 50% inhibition of PTK activity over control
Chain of PDGFR (P09619 33-1106): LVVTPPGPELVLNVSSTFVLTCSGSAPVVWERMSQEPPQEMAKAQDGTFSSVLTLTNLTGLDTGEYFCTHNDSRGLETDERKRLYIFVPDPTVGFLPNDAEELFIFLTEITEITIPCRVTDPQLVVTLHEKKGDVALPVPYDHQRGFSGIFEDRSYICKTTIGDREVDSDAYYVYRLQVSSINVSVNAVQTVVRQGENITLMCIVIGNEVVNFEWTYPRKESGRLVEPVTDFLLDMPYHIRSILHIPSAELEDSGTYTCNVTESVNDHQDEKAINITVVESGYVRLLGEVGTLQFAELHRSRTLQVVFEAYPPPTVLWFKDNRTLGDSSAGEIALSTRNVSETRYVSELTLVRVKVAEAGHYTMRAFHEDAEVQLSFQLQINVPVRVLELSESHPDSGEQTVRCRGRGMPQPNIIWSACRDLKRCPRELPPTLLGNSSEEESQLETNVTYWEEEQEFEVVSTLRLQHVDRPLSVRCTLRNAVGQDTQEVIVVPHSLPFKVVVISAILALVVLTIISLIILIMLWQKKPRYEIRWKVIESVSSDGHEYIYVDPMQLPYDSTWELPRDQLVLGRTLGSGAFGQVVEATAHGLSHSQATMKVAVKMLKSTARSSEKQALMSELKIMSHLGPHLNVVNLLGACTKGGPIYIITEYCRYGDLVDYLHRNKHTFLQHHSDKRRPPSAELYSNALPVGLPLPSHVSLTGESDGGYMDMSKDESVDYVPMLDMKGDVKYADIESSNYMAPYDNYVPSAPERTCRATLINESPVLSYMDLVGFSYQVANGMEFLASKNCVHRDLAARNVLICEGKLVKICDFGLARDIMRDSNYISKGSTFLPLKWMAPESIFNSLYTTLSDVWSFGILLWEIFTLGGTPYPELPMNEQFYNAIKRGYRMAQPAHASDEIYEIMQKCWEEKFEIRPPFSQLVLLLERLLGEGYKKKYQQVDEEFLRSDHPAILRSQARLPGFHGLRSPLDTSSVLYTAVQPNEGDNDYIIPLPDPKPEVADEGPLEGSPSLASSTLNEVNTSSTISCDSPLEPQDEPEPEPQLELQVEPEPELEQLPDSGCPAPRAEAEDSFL
Experimental: as §1
All cell culture media, glutamine, and fetal bovine serum can be purchased from Gibco Life Technologies (Grand Island, N.Y.) unless otherwise specified. All cells are grown in a humid atmosphere of 90-95% air and 5-10% CO2 at 37° C. All cell lines are routinely subcultured twice a week and are negative for mycoplasma as determined by the Mycotect method (Gibco).
For ELISA assays, cells (U1242, obtained from Joseph Schlessinger, NYU) are grown to 80-90% confluency in growth medium (MEM with 10% FBS, NEAA, 1 mM NaPyr and 2 mM GLN) and seeded in 96-well tissue culture plates in 0.5% serum at 25,000 to 30,000 cells per well. After overnight incubation in 0.5% serum-containing medium, cells are changed to serum-free medium and treated with test compound for 2 hr in a 5% CO2, 37° C. incubator. Cells are then stimulated with ligand for 5-10 minute followed by lysis with HNTG (20 mM Hepes, 150 mM NaCl, 10% glycerol, 5 mM EDTA, 5 mM Na3VO4, 0.2% Triton X-100, and 2 mM NaPyr). Cell lysates (0.5 mg/well in PBS) are transferred to ELISA plates previously coated with receptor-specific antibody and which had been blocked with 5% milk in TBST (50 mM Tris-HCl pH 7.2, 150 mM NaCl and 0.1% Triton X-100) at room temperature for 30 min. Lysates are incubated with shaking for 1 hour at room temperature. The plates are washed with TBST four times and then incubated with polyclonal anti-phosphotyrosine antibody at room temperature for 30 minutes. Excess anti-phosphotyrosine antibody is removed by rinsing the plate with TBST four times. Goat anti-rabbit IgG antibody is added to the ELISA plate for 30 min at room temperature followed by rinsing with TBST four more times. ABTS (100 mM citric acid, 250 mM Na2HPO4 and 0.5 mg/mL 2,2′-azino-bis(3-ethylbenzthiazoline-6-sulfonic acid)) plus H2O2 (1.2 mL 30% H2O2 to 10 mL ABTS) is added to the ELISA plates to start color development. Absorbance at 410 nm with a reference wavelength of 630 nm is recorded about 15 to 30 min after ABTS addition.

T1 sequence (P35918 20-1345): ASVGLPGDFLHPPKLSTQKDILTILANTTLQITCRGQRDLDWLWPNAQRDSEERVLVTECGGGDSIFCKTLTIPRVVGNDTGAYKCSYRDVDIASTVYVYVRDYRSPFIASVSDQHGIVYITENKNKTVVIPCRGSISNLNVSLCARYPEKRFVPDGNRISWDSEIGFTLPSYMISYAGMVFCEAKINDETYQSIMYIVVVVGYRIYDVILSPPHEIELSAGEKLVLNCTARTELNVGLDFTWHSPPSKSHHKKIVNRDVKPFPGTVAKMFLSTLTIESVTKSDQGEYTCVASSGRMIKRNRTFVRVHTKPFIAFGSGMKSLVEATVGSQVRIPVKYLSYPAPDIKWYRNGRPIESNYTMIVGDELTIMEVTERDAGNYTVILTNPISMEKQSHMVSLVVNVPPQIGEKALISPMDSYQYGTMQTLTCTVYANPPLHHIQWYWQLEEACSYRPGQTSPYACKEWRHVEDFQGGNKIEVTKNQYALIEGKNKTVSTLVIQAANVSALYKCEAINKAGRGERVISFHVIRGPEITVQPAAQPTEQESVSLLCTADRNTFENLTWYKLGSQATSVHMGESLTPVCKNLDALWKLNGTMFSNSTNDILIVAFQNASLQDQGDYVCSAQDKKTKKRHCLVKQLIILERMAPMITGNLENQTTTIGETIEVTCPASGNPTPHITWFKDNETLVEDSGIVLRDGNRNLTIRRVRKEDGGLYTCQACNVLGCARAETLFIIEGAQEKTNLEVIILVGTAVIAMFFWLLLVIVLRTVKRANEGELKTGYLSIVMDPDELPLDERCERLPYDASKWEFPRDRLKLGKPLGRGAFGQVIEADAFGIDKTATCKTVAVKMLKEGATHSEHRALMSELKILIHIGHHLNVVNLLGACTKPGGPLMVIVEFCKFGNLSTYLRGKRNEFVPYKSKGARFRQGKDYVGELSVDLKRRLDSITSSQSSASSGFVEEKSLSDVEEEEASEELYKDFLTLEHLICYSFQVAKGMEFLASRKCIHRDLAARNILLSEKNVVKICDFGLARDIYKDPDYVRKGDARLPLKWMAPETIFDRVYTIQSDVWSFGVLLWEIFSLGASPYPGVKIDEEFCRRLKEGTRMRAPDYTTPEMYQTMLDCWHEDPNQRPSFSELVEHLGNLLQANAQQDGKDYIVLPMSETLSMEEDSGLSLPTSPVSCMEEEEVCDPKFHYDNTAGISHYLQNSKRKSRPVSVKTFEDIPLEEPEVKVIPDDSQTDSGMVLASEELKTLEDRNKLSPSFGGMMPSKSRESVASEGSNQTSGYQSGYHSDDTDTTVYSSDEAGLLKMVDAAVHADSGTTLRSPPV

Compound | IC50 (FLK-1R) [µM] | IC50 (PDGFR) [µM]
CCOC(=O)c1c(C)[nH]c(C=C2C(=O)Nc3ccc(NC(=O)c4ccc(C(=O)OC)cc4)cc32)c1C [3-(2,4-dimethyl-3-ethoxycarbonylpyrrol-5-methylidenyl)-5-(4-methoxycarbonylbenzamido)-2-indolinone] | > 10 | –
CCOC(=O)c1c(C)[nH]c(C=C2C(=O)Nc3ccc(Br)cc32)c1C [3-(2,4-dimethyl-3-ethoxycarbonylpyrrol-5-methylidenyl)-5-bromo-2-indolinone] | 4.2 | –
CC(=O)c1[nH]c(C=C2C(=O)Nc3ccccc32)c(C)c1C [3-(2-acetyl-3,4-dimethylpyrrol-5-methylidenyl)-2-indolinone] | 23.8 | –
COC(=O)Cc1c(Cl)[nH]c(C=C2C(=O)Nc3ccccc32)c1C(=O)OC [3-(2-chloro-4-methoxycarbonyl-3-methoxycarbonylmethylpyrrol-5-methylidenyl)-2-indolinone] | > 50 | –
CCOC(=O)c1[nH]c(C=C2C(=O)Nc3ccccc32)c(C(C)=O)c1C [3-(4-acetyl-2-ethoxycarbonyl-3-methylpyrrol-5-methylidenyl)-2-indolinone] | > 10 | > 10
CCOC(=O)c1c[nH]c(C=C2C(=O)Nc3ccccc32)c1C [3-(4-ethoxycarbonyl-3-methylpyrrol-2-methylidenyl)-2-indolinone] | 0.2 | > 100
CCOC(=O)CCc1c(C(=O)OCC)[nH]c(C=C2C(=O)Nc3ccccc32)c1CC(=O)OCC [3-[2-ethoxycarbonyl-3-(2-ethoxycarbonylethyl)-4-ethoxycarbonylmethyl)pyrrol-5-methylidenyl)-2-indolinone] | > 10 | > 10
Cc1c[nH]c(C=C2C(=O)Nc3ccccc32)c1CCC(=O)O [3-[3-(2-carboxyethyl-4-methylpyrrol-2-methylidenyl]-2-indolinone] | 0.4 | –
COC(=O)CCc1c[nH]c(C=C2C(=O)Nc3cc(OC)c(OC)cc32)c1C [3-[4-(2-methoxycarbonylethyl)-3-methylpyrrol-2-methylidenyl]-5,6-dimethoxy-2-indolinone] | 36 | 22.3
COC(=O)CCc1c[nH]c(C=C2C(=O)Nc3ccccc32)c1C [3-[4-(2-methoxycarbonylethyl-3-methylpyrrol-2-methylidenyl]-2-indolinone] | 1.1 | –
